Activity calls are given as the source filed them. No cut-off for these calls is given here.
Key:
[1] = Cytotoxicity against mouse RAW264.7 cells assessed as macrophage viability at 10 uM relative to control; type: toxicity, cell-based; conditions: read-out: Activity
BV-2 [2] = assay: Anti-inflammatory activity against mouse BV-2 cells assessed as inhibition of LPS-induced NO production at 10 uM pretreated for 2 hrs followed stimulated with LPS for 22 hrs by Griess reaction assay relative to control; type: functional; conditions: time 24 hrs
K562 [3] = assay: Anticancer activity against human K562 cells assessed as growth inhibition at 10 uM measured after 48 hrs by SRB assay relative to control; type: functional; conditions: read-out: GI
MOLT-4 [4] = assay: Anticancer activity against human MOLT-4 cells assessed as growth inhibition at 10 uM measured after 48 hrs by SRB assay relative to control; type: functional; conditions: read-out: GI
CCRF-CEM [5] = assay: Anticancer activity against human CCRF-CEM cells assessed as growth inhibition at 10 uM measured after 48 hrs by SRB assay relative to control; type: functional; conditions: read-out: GI
SR [6] = assay: Anticancer activity against human SR cells assessed as growth inhibition at 10 uM measured after 48 hrs by SRB assay relative to control; type: functional; conditions: read-out: GI
RPMI-8226 [7] = assay: Anticancer activity against human RPMI-8226 cells assessed as growth inhibition at 10 uM measured after 48 hrs by SRB assay relative to control; type: functional; conditions: read-out: GI
BV-2 [8] = assay: Anti-inflammatory activity against mouse BV-2 cells assessed as inhibition of LPS-induced TNFalpha production pretreated for 2 hrs followed stimulated with LPS for 22 hrs; type: functional, cell-based
BV-2 [9] = assay: Anti-inflammatory activity against mouse BV-2 cells assessed as inhibition of LPS-induced NO production pretreated for 2 hrs followed stimulated with LPS for 22 hrs by Griess reaction assay; type: functional, cell-based
HL-60 [10] = assay: Anticancer activity against human HL-60 cells assessed as growth inhibition at 10 uM measured after 48 hrs by SRB assay relative to control; type: functional; conditions: for inhibition of growth at 10 µM: read-out: GI
BV-2 [11] = assay: Anti-inflammatory activity against mouse BV-2 cells assessed as inhibition of LPS-induced PGE2 production pretreated for 2 hrs followed stimulated with LPS for 22 hrs; type: functional, cell-based
BV-2 [12] = assay: Anti-inflammatory activity against mouse BV-2 cells assessed as inhibition of LPS-induced PGE2 production pretreated for 2 hrs followed stimulated with LPS for 22 hrs at 10 uM relative to control; type: functional; conditions: time 24 hrs
BV-2 [13] = assay: Anti-inflammatory activity against mouse BV-2 cells assessed as inhibition of LPS-induced TNFalpha production pretreated for 2 hrs followed stimulated with LPS for 22 hrs at 10 uM relative to control; type: functional; conditions: time 24 hrs
MOLT-4 [14] = assay: Anticancer activity against human MOLT-4 cells assessed as growth inhibition measured after 48 hrs by SRB assay relative to control; type: functional
CCRF-CEM [15] = assay: Anticancer activity against human CCRF-CEM cells assessed as growth inhibition measured after 48 hrs by SRB assay relative to control; type: functional
RPMI-8226 [16] = assay: Anticancer activity against human RPMI-8226 cells assessed as growth inhibition measured after 48 hrs by SRB assay relative to control; type: functional
HL-60 [17] = assay: Anticancer activity against human HL-60 cells assessed as growth inhibition measured after 48 hrs by SRB assay relative to control; type: functional
K562 [18] = assay: Anticancer activity against human K562 cells assessed as growth inhibition measured after 48 hrs by SRB assay relative to control; type: functional
SR [19] = assay: Anticancer activity against human SR cells assessed as growth inhibition measured after 48 hrs by SRB assay relative to control; type: functional
BV-2 [20] = assay: Anti-inflammatory activity against mouse BV-2 cells assessed as inhibition of LPS-induced NO production at 40 uM pretreated for 2 hrs followed stimulated with LPS for 22 hrs by Griess reaction assay relative to control; type: functional; conditions: time 24 hrs
[21] = Cytotoxicity against mouse RAW264.7 cells assessed as macrophage viability at 40 uM relative to control; type: toxicity, cell-based; conditions: read-out: Activity

COc1cc2c(c(OC)c1OC)C(=O)CC(c1cccc(NC(=O)c3cccc(Br)c3)c1)O2 (racemic)
viability at 10 µM [1]: 105%
inhibition at 10 µM (BV-2 [2]): 14.2%

COc1cc2c(c(OC)c1OC)C(=O)CC(c1cccc(C(=O)Nc3cccc([N+](=O)[O-])c3)c1)O2 (racemic)
inhibition of growth at 10 µM (K562 [3]): 63.5%
inhibition of growth at 10 µM (MOLT-4 [4]): 77.2%
inhibition of growth at 10 µM (CCRF-CEM [5]): 89.7%
inhibition of growth at 10 µM (SR [6]): 66.2%
inhibition of growth at 10 µM (RPMI-8226 [7]): 82.7%
viability at 10 µM [1]: 111%
IC50 (BV-2 [8]): > 20 µM
IC50 (BV-2 [9]): 14.7 µM
inhibition of growth at 10 µM (HL-60 [10]): 49.4%
IC50 (BV-2 [11]): 10.7 µM
inhibition at 10 µM (BV-2 [2]): 42.7%
inhibition at 10 µM (BV-2 [12]): 31.4%

COc1cc2c(c(OC)c1OC)C(=O)CC(c1cccc(C(=O)Nc3ccccc3Br)c1)O2 (racemic)
viability at 10 µM [1]: 101%
inhibition at 10 µM (BV-2 [2]): 9.4%

COc1cc2c(c(OC)c1OC)C(=O)CC(c1cccc(C(=O)Nc3cccc(Br)c3)c1)O2 (racemic)
inhibition of growth at 10 µM (K562 [3]): 50.2%
inhibition of growth at 10 µM (MOLT-4 [4]): 51.2%
inhibition at 10 µM (BV-2 [13]): 39.5%
inhibition of growth at 10 µM (CCRF-CEM [5]): 55%
inhibition of growth at 10 µM (RPMI-8226 [7]): 53.2%
viability at 10 µM [1]: 97.9%
IC50 (BV-2 [8]): 15.5 µM
IC50 (BV-2 [9]): 11.7 µM
inhibition of growth at 10 µM (HL-60 [10]): 8.2%
IC50 (BV-2 [11]): 10.9 µM
inhibition at 10 µM (BV-2 [2]): 46.3%
inhibition at 10 µM (BV-2 [12]): 19.8%

COc1cccc(CNC(=O)c2cccc(C3CC(=O)c4c(cc(OC)c(OC)c4OC)O3)c2)c1 (racemic)
viability at 10 µM [1]: 107%
inhibition at 10 µM (BV-2 [2]): 24.7%

COc1cccc(NC(=O)c2cccc(C3CC(=O)c4c(cc(OC)c(OC)c4OC)O3)c2)c1 (racemic)
viability at 10 µM [1]: 112%
inhibition at 10 µM (BV-2 [2]): 21.9%

COc1ccccc1NC(=O)c1cccc(C2CC(=O)c3c(cc(OC)c(OC)c3OC)O2)c1 (racemic)
viability at 10 µM [1]: 103%
inhibition at 10 µM (BV-2 [2]): 19.7%

COc1cc2c(c(OC)c1OC)C(=O)CC(c1cccc(C(=O)Nc3ccccc3)c1)O2 (racemic)
viability at 10 µM [1]: 110%
inhibition at 10 µM (BV-2 [2]): 24.2%

Cc1ccc(NC(=O)c2ccc(CN3CCN(C)CC3)cc2)cc1Nc1nccc(-c2cccnc2)n1 [IMATINIB]
GI50 (MOLT-4 [14]): 5.13 µM
inhibition of growth at 10 µM (MOLT-4 [4]): 18%
GI50 (CCRF-CEM [15]): 17 µM
GI50 (RPMI-8226 [16]): 6.17 µM
inhibition of growth at 10 µM (CCRF-CEM [5]): 6.6%
inhibition of growth at 10 µM (SR [6]): 14.6%
inhibition of growth at 10 µM (RPMI-8226 [7]): 12.6%
GI50 (HL-60 [17]): 13.5 µM
GI50 (K562 [18]): 0.05 µM
growth inhibition (GI) (HL-60 [10]): inactive
GI50 (SR [19]): 7.24 µM

COc1cc2c(c(OC)c1OC)C(=O)CC(c1cccc(C(=O)Nc3cccc(Cl)c3)c1)O2 (racemic)
viability at 10 µM [1]: 93.9%
inhibition at 10 µM (BV-2 [2]): 24.6%

COc1ccc(C(=O)Nc2cccc(C3CC(=O)c4c(cc(OC)c(OC)c4OC)O3)c2)cc1 (racemic)
viability at 10 µM [1]: 102%
inhibition at 10 µM (BV-2 [2]): 15.2%

COc1cc2c(c(OC)c1OC)C(=O)CC(c1cccc(NC(=O)c3cccc(Cl)c3)c1)O2 (racemic)
viability at 10 µM [1]: 100%
inhibition at 10 µM (BV-2 [2]): 32.3%

COc1ccccc1C(=O)Nc1cccc(C2CC(=O)c3c(cc(OC)c(OC)c3OC)O2)c1 (racemic)
viability at 10 µM [1]: 103%
inhibition at 10 µM (BV-2 [2]): 14.3%

COc1cc2c(c(OC)c1OC)C(=O)CC(c1cccc(C(=O)Nc3cccc(F)c3)c1)O2 (racemic)
viability at 10 µM [1]: 110%
inhibition at 10 µM (BV-2 [2]): 25.8%

COc1cc2c(c(OC)c1OC)C(=O)CC(c1cccc(NC(=O)c3ccccc3)c1)O2 (racemic)
viability at 10 µM [1]: 97%
inhibition at 10 µM (BV-2 [2]): 23.5%

COc1cc2c(c(OC)c1OC)C(=O)CC(c1cccc(C(=O)Nc3ccncc3)c1)O2 (racemic)
viability at 10 µM [1]: 91.3%
inhibition at 10 µM (BV-2 [2]): 16%

COc1cccc(C(=O)Nc2cccc(C3CC(=O)c4c(cc(OC)c(OC)c4OC)O3)c2)c1 (racemic)
viability at 10 µM [1]: 98%
inhibition at 10 µM (BV-2 [2]): 32.1%

COc1ccc(NC(=O)c2cccc(C3CC(=O)c4c(cc(OC)c(OC)c4OC)O3)c2)cc1 (racemic)
viability at 10 µM [1]: 111%
inhibition at 10 µM (BV-2 [2]): 28.6%

COc1cc2c(c(OC)c1OC)C(=O)CC(c1cccc(NC(=O)c3ccc(C#N)cc3)c1)O2 (racemic)
viability at 10 µM [1]: 115%
inhibition at 10 µM (BV-2 [2]): 26.8%

COc1cc2c(c(OC)c1OC)C(=O)CC(c1cccc(NC(=O)c3ccc([N+](=O)[O-])cc3)c1)O2 (racemic)
inhibition of growth at 10 µM (K562 [3]): 64.6%
inhibition of growth at 10 µM (MOLT-4 [4]): 84.2%
inhibition at 10 µM (BV-2 [13]): 54.6%
inhibition of growth at 10 µM (CCRF-CEM [5]): 75.6%
inhibition of growth at 10 µM (SR [6]): 73.8%
inhibition of growth at 10 µM (RPMI-8226 [7]): 66.6%
viability at 10 µM [1]: 104%
Activity (BV-2 [8]; time 24.0 hrs): Dose-Dependent Effect
IC50 (BV-2 [9]): 19.8 µM
IC50 (BV-2 [11]): 9.8 µM
inhibition at 10 µM (BV-2 [2]): 35.8%
inhibition at 10 µM (BV-2 [12]): 51.6%

COc1cc2c(c(OC)c1OC)C(=O)CC(c1cccc(C(=O)Nc3cccnc3)c1)O2 (racemic)
viability at 10 µM [1]: 109%
inhibition at 10 µM (BV-2 [2]): 10.5%

CC(=N)NCCCC[C@H](N)C(=O)O [L-NIL]
inhibition at 40 µM (BV-2 [20]): 54.3%
viability at 40 µM [21]: 106%

COc1cc2c(c(OC)c1OC)C(=O)CC(c1cccc(NC(=O)c3ccccc3Br)c1)O2 (racemic)
inhibition of growth at 10 µM (K562 [3]): 29.8%
inhibition of growth at 10 µM (MOLT-4 [4]): 30.4%
inhibition at 10 µM (BV-2 [13]): 62.4%
inhibition of growth at 10 µM (CCRF-CEM [5]): 26.9%
inhibition of growth at 10 µM (SR [6]): 31.6%
inhibition of growth at 10 µM (RPMI-8226 [7]): 41.8%
viability at 10 µM [1]: 101%
IC50 (BV-2 [8]): 7.3 µM
IC50 (BV-2 [9]): 13.3 µM
inhibition at 10 µM (BV-2 [2]): 41.4%
inhibition at 10 µM (BV-2 [12]): 39%

COc1cc2c(c(OC)c1OC)C(=O)CC(c1cccc(C(=O)Nc3ccc(C#N)cc3)c1)O2 (racemic)
viability at 10 µM [1]: 122%
inhibition at 10 µM (BV-2 [2]): 21.2%

COc1cc2c(c(OC)c1OC)C(=O)CC(c1cccc(C(=O)Nc3ccc(Br)cc3)c1)O2 (racemic)
inhibition of growth at 10 µM (K562 [3]): 93.8%
inhibition of growth at 10 µM (MOLT-4 [4]): 101%
inhibition at 10 µM (BV-2 [13]): 24.9%
inhibition of growth at 10 µM (CCRF-CEM [5]): 90.7%
inhibition of growth at 10 µM (SR [6]): 77.8%
inhibition of growth at 10 µM (RPMI-8226 [7]): 85.4%
viability at 10 µM [1]: 113%
IC50 (BV-2 [8]): 16.8 µM
IC50 (BV-2 [9]): 13.1 µM
inhibition of growth at 10 µM (HL-60 [10]): 86.3%
IC50 (BV-2 [11]): 10.3 µM
inhibition at 10 µM (BV-2 [2]): 41.2%
inhibition at 10 µM (BV-2 [12]): 62.6%

Source: ChEMBL document CHEMBL5625164, “Design, synthesis, and evaluation of new anti-inflammatory natural products amide derivatives endowed with anti-blood cancer activity towards development of potential multifunctional agents against hematological cancers” (Eur J Med Chem, 2023)
